Test results as given in patent US10189836B2, “Therapeutic compounds, compositions and methods of use thereof” (Genentech, Inc., priority 2015, dated 2019).

Assays:
[1] = target: isolated recombinant JAK2 kinase domain (Homo sapiens (Human), UniProt O60674); test: JAK2 enzyme assay (Caliper LabChip, Ki); assay type: biochemical; conditions: isolated recombinant JAK2 kinase domain, 0.2 nM enzyme, ATP 25 μM
[2] = target: isolated recombinant JAK1 kinase domain (Homo sapiens (Human), UniProt P23458); test: JAK1 enzyme assay (Caliper LabChip, Ki); assay type: biochemical; conditions: isolated recombinant JAK1 kinase domain, 1.5 nM enzyme, ATP 25 μM
isolated recombinant JAK1 kinase domain, sequence (P23458 875-1153): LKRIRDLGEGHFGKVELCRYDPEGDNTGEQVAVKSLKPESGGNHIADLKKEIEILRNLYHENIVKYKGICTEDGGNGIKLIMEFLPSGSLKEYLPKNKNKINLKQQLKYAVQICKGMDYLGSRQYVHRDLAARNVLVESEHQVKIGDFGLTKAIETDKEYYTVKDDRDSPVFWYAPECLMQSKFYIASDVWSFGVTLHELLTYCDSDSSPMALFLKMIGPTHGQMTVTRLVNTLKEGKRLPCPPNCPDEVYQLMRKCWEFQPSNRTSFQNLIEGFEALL

isolated recombinant JAK2 kinase domain, sequence (O60674 849-1124): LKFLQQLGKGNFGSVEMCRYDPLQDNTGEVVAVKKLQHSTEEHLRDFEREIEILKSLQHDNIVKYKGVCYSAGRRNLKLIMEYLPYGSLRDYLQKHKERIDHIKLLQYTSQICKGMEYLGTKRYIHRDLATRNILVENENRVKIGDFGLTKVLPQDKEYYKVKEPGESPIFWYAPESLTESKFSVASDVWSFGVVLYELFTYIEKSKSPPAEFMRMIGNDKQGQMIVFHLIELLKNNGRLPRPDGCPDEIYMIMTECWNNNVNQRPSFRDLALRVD

Structure (SMILES)	Ki [1]	Ki [2]
CN1CCN(C(=O)Cn2cc(Nc3nc4c(N5CC6CCC(C5)N6S(=O)(=O)C5CCCCC5)cccn4n3)cn2)CC1 [Example 178, 2-[4-[[8-(8-cyclohexylsulfonyl-3,8-diazabicyclo[3.2.1]octan-3-yl)-[1,2,4]triazolo[1,5-a]pyridin-2-yl]amino]pyrazol-1-yl]-1-(4-methylpiperazin-1-yl)ethanone; formic acid]	1.5 nM	1.8 nM
O=C(Cn1cc(Nc2nc3c(N4CC5CCC(C4)N5C(=O)CCC(F)(F)F)cccn3n2)cn1)N1CCC(N2CCn3nccc3C2)CC1 [Example 179, 1-[3-[2-[[1-[2-[4-(6,7-dihydro-4H-pyrazolo[1,5-a]pyrazin-5-yl)-1-piperidyl]-2-oxo-ethyl]pyrazol-4-yl]amino]-[1,2,4]triazolo[1,5-a]pyridin-8-yl]-3,8-diazabicyclo[3.2.1]octan-8-yl]-4,4,4-trifluoro-butan-1-one; formic acid]	1.3 nM	1.6 nM
CSC1CCN(C(=O)N2C3CCC2CN(c2cccn4nc(Nc5cnn(CC(=O)N6CCN(C)CC6)c5)nc24)C3)CC1 [Example 180, 1-(4-methylpiperazin-1-yl)-2-[4-[[8-[8-(4-methylsulfanylpiperidine-1-carbonyl)-3,8-diazabicyclo[3.2.1]octan-3-yl]-[1,2,4]triazolo[1,5-a]pyridin-2-yl]amino]pyrazol-1-yl]ethanone]	2.6 nM	1.3 nM
CN1CCN(C(=O)Cn2cc(Nc3nc4c(N5CC6CCC(C5)N6C(=O)N5CCC(C(F)(F)F)C5)cccn4n3)cn2)CC1 (stereo not drawn) [Example 181, 1-(4-methylpiperazin-1-yl)-2-[4-[[8-[8-(3-(trifluoromethyl)pyrrolidine-1-carbonyl]-3,8-diazabicyclo[3.2.1]octan-3-yl]-[1,2,4]triazolo[1,5-a]pyridin-2-yl]amino]pyrazol-1-yl]ethanone]	1.3 nM	0.8 nM
CN1CCN(C(=O)Cn2cc(Nc3nc4c(N5CC6CCC(C5)N6C(=O)N5CCC(C#N)CC5)cccn4n3)cn2)CC1 [Example 182, 1-[3-[2-[[1-[2-(4-methylpiperazin-1-yl)-2-oxo-ethyl]pyrazol-4-yl]amino]-[1,2,4]triazolo[1,5-a]pyridin-8-yl]-3,8-diazabicyclo[3.2.1]octane-8-carbonyl]piperidine-4-carbonitrile]	0.9 nM	0.6 nM
CN1CCN(C(=O)Cn2cc(Nc3nc4c(N5CC6CCC(C5)N6S(=O)(=O)Cc5ccc(C(F)(F)F)cc5)cccn4n3)cn2)CC1 [Example 184, 1-(4-methylpiperazin-1-yl)-2-[4-[[8-[8-([4-(trifluoromethyl)phenyl]methylsulfonyl]-3,8-diazabicyclo[3.2.1]octan-3-yl]-[1,2,4]triazolo[1,5-a]pyridin-2-yl]amino]pyrazol-1-yl]ethanone]	2.3 nM	1 nM
CSCCN1CCN(C(=O)Cn2cc(Nc3nc4c(N5CC6CCC(C5)N6C(=O)N5CC(C(F)(F)F)C5)cccn4n3)cn2)CC1 [Example 186, 1-[4-(2-methylsulfanylethyl)piperazin-1-yl]-2-[4-[[8-[8-(3-(trifluoromethyl)azetidine-1-carbonyl]-3,8-diazabicyclo[3.2.1]octan-3-yl]-[1,2,4]triazolo[1,5-a]pyridin-2-yl]amino]pyrazol-1-yl]ethanone; formic acid]	0.2 nM	0.2 nM
CN1CCN(C(=O)Cn2cc(Nc3nc4c(N5CC6CCC(C5)N6C(=O)N5CCC(F)(F)CC5)cccn4n3)cn2)CC1 [Example 188, 2-[4-[[8-[8-(4,4-difluoropiperidine-1-carbonyl)-3,8-diazabicyclo[3.2.1]octan-3-yl]-[1,2,4]triazolo[1,5-a]pyridin-2-yl]amino]pyrazol-1-yl]-1-(4-methylpiperazin-1-yl)ethanone]	0.2 nM	0.2 nM
N#CC1(CNC2CCN(C(=O)Cn3cc(Nc4nc5c(N6CC7CCC(C6)N7C(=O)C6CC(C(F)(F)F)C6)cccn5n4)cn3)CC2)CC1 (stereo not drawn) [Example 190, 1-[[[1-[2-[4-[[8-[8-[3-(trifluoromethyl)cyclo-butanecarbonyl]-3,8-diazabicyclo[3.2.1]octan-3-yl]-[1,2,4]triazolo[1,5-a]pyridin-2-yl]amino]pyrazol-1-yl]acetyl]-4-piperidyl]amino]methyl]-cyclopropanecarbonitrile]	1.8 nM	1 nM
N#CC1(CNC2CCN(C(=O)Cn3cc(Nc4nc5c(N6CC7CCC(C6)N7C(=O)C6CC(C(F)(F)F)C6)cccn5n4)cn3)CC2)CC1 (stereo not drawn) [Example 191, 1-[[[1-[2-[4-[[8-[8-[3-(trifluoromethyl)cyclo-butanecarbonyl]-3,8-diazabicyclo[3.2.1]octan-3-yl]-[1,2,4]triazolo[1,5-a]pyridin-2-yl]amino]pyrazol-1-yl]acetyl]-4-piperidyl]amino]methyl]-cyclopropanecarbonitrile]	7.8 nM	3.5 nM
CN(CC1(C#N)CC1)C1CCN(C(=O)Cn2cc(Nc3nc4c(N5CC6CCC(C5)N6C(=O)C5CC(C(F)(F)F)C5)cccn4n3)cn2)CC1 (stereo not drawn) [Example 192, 1-[[methyl-[1-[2-[4-[[8-[8-[3-(trifluoromethyl)cyclo-butanecarbonyl]-3,8-diazabicyclo[3.2.1]octan-3-yl]-[1,2,4]triazolo[1,5-a]alpyridin-2-yl]amino]pyrazol-1-yl]acetyl]-4-piperidyl]amino]methyl]-cyclopropanecarbonitrile]	1.1 nM	0.9 nM
CN(CC1(C#N)CC1)C1CCN(C(=O)Cn2cc(Nc3nc4c(N5CC6CCC(C5)N6C(=O)C5CC(C(F)(F)F)C5)cccn4n3)cn2)CC1 (stereo not drawn) [Example 193, 1-[[methyl-[1-[2-[4-[[8-[8-[3-(trifluoromethyl)cyclobutanecarbonyl]-3,8-diazabicyclo[3.2.1]octan-3-yl]-[1,2,4]triazolo[1,5-a]pyridin-2-yl]amino]pyrazol-1-yl]acetyl]-4-piperidyl]amino]methyl]-cyclopropanecarbonitrile]	0.7 nM	0.6 nM
O=C(Cn1cc(Nc2nc3c(N4CC5CCC(C4)N5C(=O)N4CC(C(F)(F)F)C4)cccn3n2)cn1)N1CCN(C2COC2)CC1 [Example 194, 1-[4-(oxetan-3-yl)piperazin-1-yl]-2-[4-[[8-[8-[3-(trifluoromethyl)azetidine-1-carbonyl]-3,8-diazabicyclo[3.2.1]octan-3-yl]-[1,2,4]triazolo[1,5-a]pyridin-2-yl]amino]pyrazol-1-yl]ethanone]	0.4 nM	0.9 nM
CN1CCN(C(=O)Cn2cc(Nc3nc4c(N5C[C@H]6CC[C@@H](C5)[C@H]6OCc5cccc(CO)c5)cccn4n3)cn2)CC1 [Example 195, 1-(4-methylpiperazin-1-yl)-2-[4-[[8-[rac-(1S,5R)-8-[[3-(hydroxymethyl)phenyl]methoxy]-3-azabicyclo[3.2.1]octan-3-yl]-[1,2,4]triazolo[1,5-a]pyridin-2-yl]amino]pyrazol-1-yl]ethanone]	0.7 nM	0.4 nM
CN1CCN(C(=O)Cn2cc(Nc3nc4c(N5CC6CCC(C5)N6C(=O)c5cnc(CC(F)(F)F)s5)cccn4n3)cn2)CC1 [Example 196]	1.1 nM	0.6 nM
CSCCN1CCN(C(=O)Cn2cc(Nc3nc4c(N5CC6CCC(C5)N6C(=O)C5CC(C(F)(F)F)C5)cccn4n3)cn2)CC1 (stereo not drawn) [Example 197, 1-[4-(2-methylsulfanylethyl)-piperazin-1-yl]-2-[4-[[8-[8-[3-(trifluoromethyl)-cyclobutanecarbonyl]-3,8-diazabicyclo[3.2.1]octan-3-yl]-[1,2,4]triazolo[1,5-a]pyridin-2-yl]amino]pyrazol-1-yl]ethanone]	0.3 nM	0.3 nM
CSCCN1CCN(C(=O)Cn2cc(Nc3nc4c(N5CC6CCC(C5)N6C(=O)C5CC(C(F)(F)F)C5)cccn4n3)cn2)CC1 (stereo not drawn) [Example 198, 1-[4-(2-methylsulfanylethyl)-piperazin-1-yl]-2-[4-[[8-[8-[3-(trifluoromethyl)-cyclobutanecarbonyl]-3,8-diazabicyclo[3.2.1]octan-3-yl]-[1,2,4]triazolo[1,5-a]pyridin-2-yl]amino]pyrazol-1-yl]ethanone]	2.1 nM	0.8 nM
CN1CCN(C(=O)Cn2cc(Nc3nc4c(N5CC6CCC(C5)N6C(=O)c5cccc(C#N)c5)cccn4n3)cn2)CC1 [Example 199, 3-[3-[2-[[1-[2-(4-methylpiperazin-1-yl)-2-oxo-ethyl]pyrazol-4-yl]amino]-[1,2,4]triazolo[1,5-a]pyridin-8-yl]-3,8-diazabicyclo[3.2.1]octane-8-carbonyl]benzonitrile]	2.1 nM	1.3 nM
